Source: patent US20080090896A1, “Strontium-Based Treatment Of Otosclerosis” (priority 2006, published 2008)

System: hearing loss associated with otosclerosis
Conditions: hearing loss patients; 2 mg strontium ranelate daily for 6 months; symptoms measured monthly
Method: Hearing Loss. Hearing loss patients generally experience progressive loss of hearing.
The following populations having the symptom stated are treated with a dosing schedule of 2 mg strontium ranelate daily for 6 months.
All symptoms will be measured monthly. All improvements will be recorded and assessed.

SMILES: N#Cc1c(N(CC(=O)[O-])CC(=O)[O-])sc(C(=O)[O-])c1CC(=O)[O-].[Sr+2].[Sr+2] [strontium ranelate]
- hearing (gains or cessation of the progression of hearing loss): some hearing gains
